Series [1] relates to LPS-induced NO production in rat kidney mesangial cells (HBZY-1). In words: Total nitrite assay (Griess): inhibition of LPS-induced NO production in kidney mesangial cells. It counts as cell-based. Particulars: for pIC50: read-out: IC50 against LPS-induced NO production (total nitrite). As to the method: (§1) Rat mesangial HBZY-1 cells were obtained from China Center for Type Culture Collection (Wuhan, China). Cells were maintained in high glucose DMEM medium (Invitrogen, USA) supplemented with 10% heat-inactivated fetal bovine serum (FBS), 25 mM HEPES, 2 mM L-glutamine, 0.1 mM nonessential amino acids, 1.0 mM sodium pyruvate, 50 U/mL penicillin, and 50 μg/mL streptomycin at 37°C and 5% CO2. The cell passage number used for the following investigation was between 10 to 20 passages.
Mesangial cells were plated on 48-well plates at a density of 50,000 cells per well overnight in DMEM media containing 2% FBS. Cells were treated by flavonoid compounds at a series of concentrations from 0, 0.05, 0.1, 0.5, 1, 5, 10 to 50 μM or 0, 1, 5, 10, 50, 100 to 200 μM based on the initial activity range with or without 10 ng/mL LPS. Total nitrite production in the treatment media after 48 h was measured with Griess assay. Briefly, 100 μL media was mixed with 25 μL of reagent І (1% sulfanilamide in 5% phosphoric acid) and then 25 μL of reagent II (0.1% N-1-napthylethylenediamine dihydrochloride in water). The optical absorbance of the resulting solution was recorded at 540 nm with a 318C-microplate reader (Sanco Instrument Ltd. Shanghai, China) after 20 min. […] IC50 values were obtained using the dose-response analysis provided by the GraphPad Prism software.
All of the hydroxylated flavones were abbreviated as the positions of hydroxyl groups followed by—HO. The total production of nitrite in the treatment media was measured with Griess assay at 48 h post 10 ng/mL LPS stimulation.
A general note: The Griess reaction detects nitrite, a stable product of nitric oxide.

Series [2] in a line: NO radical quenching study (spontaneous NO from sodium nitroprusside, Griess assay). Particulars: sodium nitroprusside 5 mM in solution, read-out: IC50 of inhibition of spontaneously generated NO radicals from sodium nitroprusside. The procedure:
Spontaneous generation of NO in solutions was achieved by a freshly prepared sodium nitroprusside stock solution in water (50 mM). The level of total nitrile production was determined by the Griess assay with the standard curve of sodium nitrile as described above. For the assay of NO inhibition by flavonoids, sodium nitroprusside solution (10 mM, 25 μL) was mixed with an equal volume of flavonoid solution in 50% DMSO, and the resulting solution was incubated at room temperature for 10 min. Griess reagent І and Griess reagent II (75 μL each) were subsequently added with a gap of 10 min. The optical density at 540 nm was recorded on a 318C-microplate reader after 15 min. The resulting data were processed and analyzed by the GraphPad Prism Software as described above.
Fig 3 Direct NO radical quench study with selected monohydroxylated and polyhydroxylated flavones. Spontaneous generation of NO was achieved by a freshly prepared sodium nitroprusside stock solution (5 mM) in water in Griess assay (top).

For a further series, the system named is cytochrome P450 2C9. Also on record: method as in PMID 19515014. Particulars: cited from earlier work.
For series [3], the system named is inducible NO synthase (iNOS). In words: Western blot analysis of LPS-induced iNOS protein. It counts as cell-based, rat. Particulars: 12 h pretreatment, LPS 500 ng/mL, 24 h. The procedure:
(§2) Cells were plated in growth media overnight at a density of 1×10^6 cells per well on a 6-well plate. […] For the western blot analysis, cells were washed with PBS and then lysed with 150 μL RIPA buffer containing protease and phosphatase inhibitor cocktail. The supernatants were collected by centrifuge at 14,000 g×10 min at 4°C and stored at -80°C. The total protein content of lysates was determined by enhanced BCA protein assay kit (Beyotime Institute of Biotechnology, Shanghai, China). Electrophoresis was carried out on a NuPAGE Novex Bis-Tris […] gel (Invitrogen, USA) under the reduced condition. After electrophoresis separation, proteins were transferred to membranes and incubated with rabbit monoclonal phospho-NF-κB-p65 antibody (3033S, 1:1000 dilution, Cell Signaling, USA), rabbit polyclonal iNOS antibody (ab3523, 1:500 dilution, Abcam, USA) or mouse monoclonal β-actin antibody (ANT009, 1:1000 dilution AntGene, China). Targeted proteins were then visualized with Qdot 625 conjugate kit (Invitrogen, USA). Gel images were captured with ZF-258 Gel Imaging System (Shanghai Jiapeng Scientific Co. Ltd, China) under illuminating light at 350 nm.
(§3) Fig 5 Western blot analysis of potential molecular targets by 6-methoxyflavone in kidney mesangial cells with LPS as the inflammatory stimuli. […]

The next series deals with mesangial cells. Nature of the series: MTT cell viability assay. In kind it is cell-based, rat. Particulars: 48 h. The procedure:
as §1
Cells were plated overnight in growth media (5,000 cells per well) and then treated with each compound for 48 h at increasing concentrations with total DMSO at 0.1%. MTT assay was carried out as reported, and cell viability was plotted with GraphPad Prism program.
For orientation: Tetrazolium assays rely on reduction of a dye to a coloured formazan, in cell work by metabolically active cells.

Series [4] deals with phosphorylated p65 protein (NF-κB pathway). In words: Western blot analysis of LPS-activated NF-κB pathway (phosphorylated p65). It counts as cell-based, rat. To be noted: up to 1.0 μM, 12 h pretreatment, LPS 500 ng/mL, 15 min. The procedure: as §2, §3
The mark [5] stands for this setting: Rattus norvegicus, HBZY-1, 48 h, rat mesangial cells, 10 ng/mL LPS, 48 h, Griess assay.
The mark [6] stands for this setting: Rattus norvegicus, HBZY-1, 48 h.

Results on 24 compounds are retold here after paper PMC4366162 (PLoS ONE, 2015).

pIC50: −log10 of the molar value. Counter-ions that a name gives are not always drawn. Like-named read-outs stand apart in the source and are kept apart here.

As to `O=c1c(O)c(-c2ccc(O)cc2O)oc2cc(O)cc(O)c12` [2',3,4',5,7-HO, morin], the pIC50 in series [1] (setting [5]) was ~3.70.
The same measure, in the same setting: under `O=c1c(O)c(-c2ccc(O)cc2O)oc2ccc(O)cc12` [2',3,4',6-HO, 2′,3,4′,6-tetrahydroxyflavone] stands ~3.70; under `O=c1c(O)c(-c2ccccc2O)oc2c(O)c(O)ccc12` [2',3,7,8-HO], ~3.70.
Consider `O=c1cc(-c2cc(O)c(O)c(O)c2)oc2cc(O)cc(O)c12` [3',4',5',5,7-HO, tricetin], for which the pIC50 in series [1] (setting [5]) was ~3.70.
Take `O=c1c(O)c(-c2cc(O)c(O)c(O)c2)oc2cc(O)cc(O)c12` [3,3',4',5',5,7-HO, 3,3′,4′,5,5′,7-hexahydroxyflavone]: the pIC50 in series [2] was ~2.00; in series [1] (setting [5]), < 3.70.
As for `O=c1c(O)c(-c2ccc(O)c(O)c2)oc2c(O)c(O)cc(O)c12` [3,3',4',5,7,8-HO, 3,3′,4′,5,7,8-hexahydroxyflavone], in series [1] (setting [6]), the pIC50 was < 3.70.
With `O=c1c(O)c(-c2ccc(O)c(O)c2)oc2cc(O)cc(O)c12` [3,3',4',5,7-HO, quercetin], the pIC50 in series [1] (setting [5]) was 4.66.
The same measure, in the same setting: for `O=c1c(O)c(-c2ccc(O)c(O)c2)oc2cc(O)ccc12` [3,3',4',7-HO, fisetin] the value was 4.96; for `O=c1c(O)c(-c2cccc(O)c2)oc2cc(O)ccc12` [3,3',7-HO], 4.96.
`O=c1cc(-c2ccc(O)cc2)oc2cc(O)cc(O)c12` [4',5,7-HO, apigenin]: in series [1] (setting [5]), the pIC50 is < 3.70.
In the case of `O=C1O[C@H]([C@@H](O)CO)C(O)=C1O` [ascorbic acid, reference compound], in series [2], the pIC50 was 3.60.
On to `O=c1cc(-c2ccccc2)oc2ccc(O)cc12` [compound 1, 6-hydroxyflavone], for which the pIC50 in series [2] was < 3.30; in series [1] (setting [5]) it was ~5.70; in series [1] (rat mesangial cells, 10 ng/mL LPS, 48 h, Griess assay), 5.77. For the same compound, the “mode of inhibition of cytochrome P450 2C9” value in the series with cytochrome P450 2C9 is “noncompetitive inhibition”.
As to `O=c1cc(-c2ccccc2)oc2cc(O)ccc12` [compound 2, 7-hydroxyflavone], the values for the pIC50 in series [2] and in series [1] (setting [6]) were < 3.30 and 4.34, respectively.
`O=c1cc(-c2ccccc2O)oc2ccccc12` [compound 3]: the pIC50 in series [1] (setting [5]) was < 3.70.
Regarding `O=c1c(O)c(-c2ccccc2)oc2ccccc12` [compound 4, 3-Hydroxyflavone], the figures for the pIC50 in series [2] and in series [1] (setting [5]) were < 3.30 and < 3.70, respectively.
Take `O=c1cc(-c2ccc(O)cc2)oc2ccc(O)cc12` [compound 5, 4′,6-dihydroxyflavone]: in series [1] (setting [5]), the pIC50 is ~5.70.
In the case of `O=c1cc(-c2ccc(O)cc2)oc2cccc(O)c12` [compound 6], in series [1] (setting [5]), the pIC50 was 4.85. Further, the “increase of IC50 against LPS-induced NO production versus flavone 5” value in series [1] (shift of hydroxyl group from 6-position to 5-position) stood at 7 fold.
As for `O=c1c(O)c(-c2ccccc2)oc2cc(O)ccc12` [compound 7], the pIC50 in series [1] (setting [6]) is 4.57.
On to `O=c1cc(-c2ccccc2)oc2c(O)c(O)ccc12` [compound 8], for which the pIC50 in series [1] (setting [5]) is 4.33.
`COc1ccc2oc(-c3ccccc3)cc(=O)c2c1` [compound 9, 6-methoxyflavone]: in series [3] (from 200 nM to 1.0 μM), the “inhibition of downstream inducible NO synthase (iNOS) upon LPS stimulation” value is reported as “significant inhibition”. Moreover, the “cytotoxicity on mesangial cells” value with mesangial cells (at 1.0 μM) is recorded as “weak cytotoxicity”. Moreover, the pIC50 in series [1] (setting [5]) was 6.72. The “potency against LPS-induced NO production relative to 6-hydroxyflavone” value in series [1] (more potent than 6-hydroxyflavone (IC50 1.7 μM)) is reported as 10 fold. Besides, the “inhibition of p65 activation (phosphorylated p65)” value in series [4] is recorded as “no observable inhibition”.
`CC(=O)Oc1ccc2oc(-c3ccccc3)cc(=O)c2c1` [compound 10, 6-Acetoxyflavone]: the “cytotoxicity on mesangial cells” value in the series with mesangial cells (at 10 μM) was “weak cytotoxicity”. For the same compound, the pIC50 in series [1] (setting [5]) was 6.22.
The like results for `O=c1cc(-c2ccccc2)oc2ccc(OS(=O)(=O)O)cc12` [compound 11, 6-flavone sulfate sodium salt] were, in that order, “minimal” and 5.68.
`O=c1c(-c2ccc(O)cc2)coc2cc(O)ccc12` [daidzein, reference compound]: the pIC50 in series [1] (setting [5]) is < 3.70.
As to `Oc1ccc(/C=C/c2cc(O)cc(O)c2)cc1` [resveratrol, reference compound], the “inhibition of downstream inducible NO synthase (iNOS) upon LPS stimulation” value in series [3] (at 10 μM) is on record as “weak inhibition”. In addition, in series [1] (setting [5]), the pIC50 was 4.96.

The pIC50 is the negative decadic logarithm of the IC50, by convention in mol/L.
